# Laboratory results: article PMC6199744, “Development of Chemical Proteomics for the Folateome and Analysis of the Kinetoplastid Folateome” (ACS Infectious Diseases, 2018)
# Like-named read-outs stand apart in the source and are kept apart here.
# Assays:
# Assay type in all cases: binding
# [1] = target: T1, HeLa cell extract proteins (Homo sapiens, UniProt P10599)
# T1 construct: endogenous in cells; host or cells: HeLa cell extract
# T1 sequence (P10599 1-105): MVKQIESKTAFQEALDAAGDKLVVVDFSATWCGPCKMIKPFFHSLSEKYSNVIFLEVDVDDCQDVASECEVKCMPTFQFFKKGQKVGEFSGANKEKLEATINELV
# [2] = target: T2, HeLa cell extract proteins (Homo sapiens, UniProt P25789)
# T2 construct: endogenous in cells; host or cells: HeLa cell extract
# T2 sequence (P25789 1-261): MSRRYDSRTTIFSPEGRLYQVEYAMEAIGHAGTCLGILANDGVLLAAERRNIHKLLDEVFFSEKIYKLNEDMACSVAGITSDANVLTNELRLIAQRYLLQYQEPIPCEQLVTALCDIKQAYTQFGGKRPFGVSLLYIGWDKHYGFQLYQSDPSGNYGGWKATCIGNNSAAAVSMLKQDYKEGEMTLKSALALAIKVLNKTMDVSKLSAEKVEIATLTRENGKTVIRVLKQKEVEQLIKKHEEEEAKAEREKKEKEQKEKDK
# [3] = target: T3, HeLa cell extract proteins (Homo sapiens, UniProt P27348)
# T3 construct: endogenous in cells; host or cells: HeLa cell extract
# T3 sequence (P27348 1-245): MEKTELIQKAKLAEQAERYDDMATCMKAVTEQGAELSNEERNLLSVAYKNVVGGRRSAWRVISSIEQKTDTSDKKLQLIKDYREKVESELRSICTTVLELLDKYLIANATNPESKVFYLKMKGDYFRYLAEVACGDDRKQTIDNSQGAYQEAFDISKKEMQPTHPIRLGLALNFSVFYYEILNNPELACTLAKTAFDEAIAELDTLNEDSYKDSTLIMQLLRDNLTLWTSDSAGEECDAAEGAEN
# [4] = target: T4, HeLa cell extract proteins (Homo sapiens, UniProt P57740)
# T4 construct: endogenous in cells; host or cells: HeLa cell extract
# T4 sequence (P57740 1-925): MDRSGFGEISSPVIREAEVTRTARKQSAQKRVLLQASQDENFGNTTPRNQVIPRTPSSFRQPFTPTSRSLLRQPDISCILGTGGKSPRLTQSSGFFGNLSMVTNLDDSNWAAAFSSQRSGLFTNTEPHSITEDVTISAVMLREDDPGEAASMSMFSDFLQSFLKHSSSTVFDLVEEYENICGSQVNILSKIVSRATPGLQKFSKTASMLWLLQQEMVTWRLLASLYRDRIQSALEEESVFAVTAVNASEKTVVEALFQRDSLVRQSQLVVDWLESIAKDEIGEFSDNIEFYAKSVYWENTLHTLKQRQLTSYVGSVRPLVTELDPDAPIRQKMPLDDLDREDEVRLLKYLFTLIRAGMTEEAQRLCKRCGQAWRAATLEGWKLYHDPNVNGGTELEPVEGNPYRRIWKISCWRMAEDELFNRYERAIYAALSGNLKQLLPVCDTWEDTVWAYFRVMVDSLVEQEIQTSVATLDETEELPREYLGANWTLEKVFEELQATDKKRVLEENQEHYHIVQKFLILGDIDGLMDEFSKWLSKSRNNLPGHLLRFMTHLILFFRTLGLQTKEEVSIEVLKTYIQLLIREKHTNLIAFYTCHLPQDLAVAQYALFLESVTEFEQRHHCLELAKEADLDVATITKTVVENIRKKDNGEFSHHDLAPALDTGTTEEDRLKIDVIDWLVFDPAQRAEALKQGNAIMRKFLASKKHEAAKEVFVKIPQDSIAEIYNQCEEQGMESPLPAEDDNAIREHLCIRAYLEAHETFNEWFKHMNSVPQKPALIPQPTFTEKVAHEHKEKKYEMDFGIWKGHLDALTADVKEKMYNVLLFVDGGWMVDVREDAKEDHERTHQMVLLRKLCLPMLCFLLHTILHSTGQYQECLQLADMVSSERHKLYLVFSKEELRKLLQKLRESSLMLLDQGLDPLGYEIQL
# [5] = target: T5, HeLa cell extract proteins (Homo sapiens, UniProt P60981)
# T5 construct: endogenous in cells; host or cells: HeLa cell extract
# T5 sequence (P60981 1-165): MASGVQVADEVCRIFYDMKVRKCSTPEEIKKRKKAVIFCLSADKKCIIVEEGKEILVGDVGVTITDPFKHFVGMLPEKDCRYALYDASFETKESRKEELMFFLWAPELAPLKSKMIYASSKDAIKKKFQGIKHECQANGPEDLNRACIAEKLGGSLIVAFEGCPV
# [6] = target: T6, HeLa cell extract proteins (Homo sapiens, UniProt Q92973)
# T6 construct: endogenous in cells; host or cells: HeLa cell extract
# T6 sequence (Q92973 1-898): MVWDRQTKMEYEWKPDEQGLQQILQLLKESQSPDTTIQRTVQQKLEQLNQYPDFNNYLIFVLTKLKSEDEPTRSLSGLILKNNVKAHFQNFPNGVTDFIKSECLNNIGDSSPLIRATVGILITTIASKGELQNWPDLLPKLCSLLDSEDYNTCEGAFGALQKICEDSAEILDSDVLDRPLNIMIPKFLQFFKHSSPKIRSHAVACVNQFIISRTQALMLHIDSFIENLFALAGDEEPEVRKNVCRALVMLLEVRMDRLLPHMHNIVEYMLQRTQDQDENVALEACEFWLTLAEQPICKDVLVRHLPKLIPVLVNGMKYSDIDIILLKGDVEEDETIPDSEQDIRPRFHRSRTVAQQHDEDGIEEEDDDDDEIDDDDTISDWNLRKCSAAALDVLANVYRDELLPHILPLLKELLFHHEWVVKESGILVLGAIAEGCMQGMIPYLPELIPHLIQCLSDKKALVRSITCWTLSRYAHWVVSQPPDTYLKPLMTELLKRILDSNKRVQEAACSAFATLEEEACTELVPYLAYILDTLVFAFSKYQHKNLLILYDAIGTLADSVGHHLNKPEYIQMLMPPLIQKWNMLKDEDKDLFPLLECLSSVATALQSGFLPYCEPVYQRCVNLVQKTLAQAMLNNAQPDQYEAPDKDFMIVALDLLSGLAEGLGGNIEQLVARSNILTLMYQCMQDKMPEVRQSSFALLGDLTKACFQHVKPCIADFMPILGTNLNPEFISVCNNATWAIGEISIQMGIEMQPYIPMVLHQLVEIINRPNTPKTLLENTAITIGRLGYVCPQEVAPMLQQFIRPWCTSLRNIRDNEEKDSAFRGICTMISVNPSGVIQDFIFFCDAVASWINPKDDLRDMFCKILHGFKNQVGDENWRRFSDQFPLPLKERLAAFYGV
SMILES,"fold changes relative to vehicle control ([1]; HeLa, protein TXN)","fold changes relative to vehicle control ([2]; HeLa, captured protein PSMA4)","fold changes relative to vehicle control ([3]; HeLa, protein YWHAQ)","fold changes relative to vehicle control ([4]; HeLa, protein NUP107)","fold changes relative to vehicle control ([5]; HeLa, protein DSTN)","fold changes relative to vehicle control ([6]; HeLa, protein TNPO1)",fold changes relative to vehicle control [1],fold changes relative to vehicle control [2],fold changes relative to vehicle control [3],fold changes relative to vehicle control [4],fold changes relative to vehicle control [5],fold changes relative to vehicle control [6],"fold changes relative to vehicle control ([1]; captured protein TXN, HeLa)","fold changes relative to vehicle control ([2]; protein PSMA4, HeLa)","fold changes relative to vehicle control ([3]; protein YWHAQ, HeLa)","fold changes relative to vehicle control ([5]; HeLa, protein DSTN (DESTRIN.)) [fold]","fold changes relative to vehicle control ([6]; protein TNPO1, HeLa)"
"Nc1nc2c(c(=O)[nH]1)N(C=O)C(CNc1ccc(C(=O)N[C@@H](CCC(=O)O)C(=O)O)cc1)CN2 (stereo partly drawn) [LEU, leucovorin]",1.05,1.05,1.08,1.01,0.96,0.98,,,,,,,,,,,
"Nc1nc2[nH]cc(CCc3ccc(C(=O)N[C@@H](CCC(=O)O)C(=O)O)cc3)c2c(=O)[nH]1 [PTX, pemetrexed]",,,,,,,1.13,1.02,1.05,0.98,1.05,0.94,,,,,
CCCCCCOc1ccc(Cc2cnc(N)nc2N)cc1 [compound 1],,,,0.98,,,,,,,,,0.95,1.1,1.54,1.28,1.01
CCCCCCOc1cccc(Cc2cnc(N)nc2N)c1 [compound 2],,,,1.03,,,,,,,,,1.18,1.19,2.29,2.07,1.1
Nc1nc2cccc(-c3ccccc3)c2n1Cc1ccc(Cl)c(Cl)c1 [compound 3],,,,1.07,,,,,,,,,1.12,1.06,0.88,1.09,1
NCCOCCOCC(=O)Nc1nc2ncc(CNc3ccc(C(=O)NC(CCC(=O)O)C(=O)O)cc3)nc2c(=O)[nH]1 (stereo not drawn) [compound 6],1.28,1.06,1.15,1.18,1.16,1.03,,,,,,,,,,,
NCCCNc1ccc(C(=O)NC(CCC(=O)O)C(=O)O)cc1 (stereo not drawn) [compound 7],1.33,1.03,0.86,1.26,0.91,0.99,,,,,,,,,,,
